Test results as given in patent publication US10266495B2, “Phenyl quinolinone derivatives as mutant-isocitrate dehydrogenase inhibitors” (FORMA TM2, Inc., priority 2014, dated 2019).
pIC50: −log10 of the molar value.

What was measured:
[1] = molecular target: IDH1-R132C recombinant protein (Homo sapiens, UniProt O75874, R132C); assay: IDH1-R132C enzymatic assay (NADPH consumption, diaphorase/resazurin readout); type: biochemical; conditions: read-out: Enzyme IDH1 R132C IC50 Range
Experimental: Assays were performed in a 384-well black plate. An aliquot of 250 nL of compound was incubated with 10 μL of 30 nM IDH1-R132H or 10 nM IDH1-R132C recombinant protein in assay buffer (50 mM Tris pH=7.5, 150 mM NaCl, 5 mM MgCl2, 0.1% (w/v) Bovine Serum Albumin, and 0.01% Triton X-100) in each well at 25° C. for 15 minutes. After the plate was centrifuged briefly, an aliquot of 10 μL of 2 mM α-ketoglutarate and 20 μM NADPH solution prepared in assay buffer was then added to each well and the reaction was maintained at 25° C. for 45 minutes. An aliquot of 10 μL of diaphorase solution (0.15 U/mL diaphorase and 30 μM Resazurin in assay buffer) was added to each well. […] The IC50 of a given compound was calculated by fitting the dose response curve of inhibition of NADPH consumption at a given concentration with the four parameter logistic equation.

[2] = tested on: HCT116 isogenic IDH1-R132H mutant cells; assay: Cellular 2-HG assay using HCT116 mutant IDH1 cells (R132H); type: cell-based; conditions: Homo sapiens, HCT-116; cellular 2-HG inhibition, 24 hours, RapidFire mass spectrometry; read-out: HCT116 IDH1 R132H IC50 Range
[3] = molecular target: IDH1-R132H recombinant protein (Homo sapiens, UniProt O75874, R132H); assay: IDH1-R132H enzymatic assay (NADPH consumption, diaphorase/resazurin readout); type: biochemical; conditions: read-out: Enzyme IDH1 R132H IC50 Range
In short: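 Compound was preincubated 15 min at 25 °C with recombinant IDH1-R132H (30 nM) or IDH1-R132C (10 nM) enzyme solution in 50 mM Tris pH 7.5, 150 mM NaCl, 5 mM MgCl2, 0.1% BSA and 0.01% Triton X-100. A solution of 2 mM α-ketoglutarate and 20 μM NADPH was then added for 45 min at 25 °C. Remaining NADPH was read by diaphorase/resazurin, and IC50 came from a four-parameter logistic fit of NADPH-consumption inhibition.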

[4] = tested on: HCT116 isogenic IDH1-R132C mutant cells; assay: Cellular 2-HG assay using HCT116 mutant IDH1 cells (R132C); type: cell-based; conditions: Homo sapiens, HCT-116; cellular 2-HG inhibition, 24 hours, RapidFire mass spectrometry; read-out: HCT116 IDH1 R132C IC50 Range

Sequence of IDH1-R132H recombinant protein (O75874 whole entry R132H): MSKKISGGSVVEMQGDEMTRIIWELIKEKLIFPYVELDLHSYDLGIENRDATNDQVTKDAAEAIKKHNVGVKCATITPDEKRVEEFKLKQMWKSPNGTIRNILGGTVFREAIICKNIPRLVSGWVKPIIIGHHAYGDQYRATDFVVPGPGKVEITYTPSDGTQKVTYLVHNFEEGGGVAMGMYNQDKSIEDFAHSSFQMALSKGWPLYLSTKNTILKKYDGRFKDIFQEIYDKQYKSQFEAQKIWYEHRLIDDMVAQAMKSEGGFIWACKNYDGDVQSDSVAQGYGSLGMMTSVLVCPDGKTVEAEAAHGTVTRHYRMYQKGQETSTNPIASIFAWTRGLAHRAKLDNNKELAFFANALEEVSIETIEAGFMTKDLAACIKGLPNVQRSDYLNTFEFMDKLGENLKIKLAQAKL
Sequence of IDH1-R132C recombinant protein (O75874 whole entry R132C): as the sequence (O75874 whole entry R132H) above, with H132C counted along it

Structure (SMILES)	pIC50 [1]	pIC50 [2]	pIC50 [3]	pIC50 [4]
COc1cc(NCc2cc3cc(Cl)ccc3[nH]c2=O)ccc1C#N [Compound I-7, 4-{[(6-chloro-2-oxo-1,2-dihydroquinolin-3-yl)methyl]amino}-2-methoxybenzonitrile]	< 6.00	6.00 to 7.00	6.00 to 7.00	< 6.00
COc1cc(NCc2cc3cc(Cl)c(OCCN4CCN(S(C)(=O)=O)CC4)cc3[nH]c2=O)ccc1C#N [Compound I-64, 4-[({6-chloro-7-[2-(4-methanesulfonylpiperazin-1-yl)ethoxy]-2-oxo-1,2-dihydroquinolin-3-yl}methyl)amino]-2-methoxybenzonitrile]	6.00 to 7.00		7.00 to 8.00	
COc1cc(NCc2cc3cc(Cl)c(OCc4cncn4C)cc3[nH]c2=O)ccc1C#N [Compound I-77, 4-[({6-chloro-7-[(1-methyl-1H-imidazol-5-yl)methoxy]-2-oxo-1,2-dihydroquinolin-3-yl}methyl)amino]-2-methoxybenzonitrile]	6.00 to 7.00		7.00 to 8.00	
COc1cc(NCc2cc3cc(Cl)c(OCC4CCOCC4)cc3[nH]c2=O)ccc1C#N [Compound I-63, 4-({[6-chloro-7-(oxan-4-ylmethoxy)-2-oxo-1,2-dihydroquinolin-3-yl]methyl}amino)-2-methoxybenzonitrile]	< 6.00		7.00 to 8.00	
COc1cc(NCc2cc3cc(Cl)c(OCCN4CCS(=O)(=O)CC4)cc3[nH]c2=O)ccc1C#N [Compound I-91, 4-[({6-chloro-7-[2-(1,1-dioxo-1λ^6,4-thiomorpholin-4-yl)ethoxy]-2-oxo-1,2-dihydroquinolin-3-yl}methyl)amino]-2-methoxybenzonitrile]	< 6.00		6.00 to 7.00	
COc1cc(NCc2cc3cc(Cl)c(OCCCN4CCCC4)cc3[nH]c2=O)ccc1C#N [Compound I-83, 4-[({6-chloro-2-oxo-7-[3-(pyrrolidin-1-yl)propoxy]-1,2-dihydroquinolin-3-yl}methyl)amino]-2-methoxybenzonitrile]	< 6.00		7.00 to 8.00	
COc1cc(NCc2cc3cc(Cl)c(OC[C@H]4CCOC4)cc3[nH]c2=O)ccc1C#N [Compound I-65, 4-[({6-chloro-2-oxo-7-[(3S)-oxolan-3-ylmethoxy]-1,2-dihydroquinolin-3-yl}methyl)amino]-2-methoxybenzonitrile]	< 6.00		7.00 to 8.00	
COc1cc(NCc2cc3cc(Cl)cc(OCCN4CCOCC4)c3[nH]c2=O)ccc1C#N [Compound I-99, 4-[({6-chloro-8-[2-(morpholin-4-yl)ethoxy]-2-oxo-1,2-dihydroquinolin-3-yl}methyl)amino]-2-methoxybenzonitrile]	< 6.00		6.00 to 7.00	
COc1cc(NCc2cc3cc(Cl)c(OCc4cccnc4)cc3[nH]c2=O)ccc1C#N [Compound I-62, 4-({[6-chloro-2-oxo-7-(pyridin-3-ylmethoxy)-1,2-dihydroquinolin-3-yl]methyl}amino)-2-methoxybenzonitrile]	< 6.00		7.00 to 8.00	
COc1cc(NCc2cc3cc(Cl)c(OCC4CCCCN4C)cc3[nH]c2=O)ccc1C#N (centres unmarked) [Compound I-72, 4-[({6-chloro-7-[(1-methylpiperidin-2-yl)methoxy]-2-oxo-1,2-dihydroquinolin-3-yl}methyl)amino]-2-methoxybenzonitrile]	< 6.00		7.00 to 8.00	
COc1cc(NCc2cc3cc(Cl)ccc3[nH]c2=O)ccc1-n1cnnn1 [Compound I-33, 6-chloro-3-({[3-methoxy-4-(1H-1,2,3,4-tetrazol-1-yl)phenyl]amino}methyl)-1,2-dihydroquinolin-2-one]	< 6.00		6.00 to 7.00	
COc1cc(NCc2cc3cc(Cl)c(OC[C@@H]4CCCN4C)cc3[nH]c2=O)ccc1C#N [Compound I-94, 4-{[(6-chloro-7-{[(2S)-1-methylpyrrolidin-2-yl]methoxy}-2-oxo-1,2-dihydroquinolin-3-yl)methyl]amino}-2-methoxybenzonitrile]	< 6.00		7.00 to 8.00	
COc1cc(NC(C)c2cc3cc(Cl)c(OCc4ccccn4)cc3[nH]c2=O)ccc1C#N (centres unmarked) [Compound I-5, 4-({1-[6-chloro-2-oxo-7-(pyridin-2-ylmethoxy)-1,2-dihydroquinolin-3-yl]ethyl}amino)-2-methoxybenzonitrile]	6.00 to 7.00		7.00 to 8.00	
COc1cc(N[C@@H](C)c2cc3cc(Cl)ccc3[nH]c2=O)ccc1C#N [Compound I-2, 4-{[(1S)-1-(6-chloro-2-oxo-1,2-dihydroquinolin-3-yl)ethyl]amino}-2-methoxybenzonitrile]	6.00 to 7.00	> 8.00	7.00 to 8.00	6.00 to 7.00
COc1cc(NCc2cc3cc(Cl)c(OCC(=O)N4CCOCC4)cc3[nH]c2=O)ccc1C#N [Compound I-69, 4-[({6-chloro-7-[2-(morpholin-4-yl)-2-oxoethoxy]-2-oxo-1,2-dihydroquinolin-3-yl}methyl)amino]-2-methoxybenzonitrile]	< 6.00		7.00 to 8.00	
COc1cc(NCc2cc3cc(C(F)(F)F)ccc3[nH]c2=O)ccc1C#N [Compound I-25, 2-methoxy-4-({[2-oxo-6-(trifluoromethyl)-1,2-dihydroquinolin-3-yl]methyl}amino)benzonitrile]	< 6.00		7.00 to 8.00	
COc1cc(NCc2cc3cc(Cl)c(OCCN4CCCCC4)cc3[nH]c2=O)ccc1C#N [Compound I-87, 4-[({6-chloro-2-oxo-7-[2-(piperidin-1-yl)ethoxy]-1,2-dihydroquinolin-3-yl}methyl)amino]-2-methoxybenzonitrile]	< 6.00		7.00 to 8.00	
COc1cc(NCc2cc3cc(Cl)c(OCCCN4CCCCC4)cc3[nH]c2=O)ccc1C#N [Compound I-84, 4-[({6-chloro-2-oxo-7-[3-(piperidin-1-yl)propoxy]-1,2-dihydroquinolin-3-yl}methyl)amino]-2-methoxybenzonitrile]	< 6.00		6.00 to 7.00	
COc1cc(NCc2cc3ccc(C)cc3[nH]c2=O)ccc1-n1cnnn1 [Compound I-22, 3-({[3-methoxy-4-(1H-1,2,3,4-tetrazol-1-yl)phenyl]amino}methyl)-7-methyl-1,2-dihydroquinolin-2-one]	< 6.00		6.00 to 7.00	
Cc1cc(NCc2cc3cc(Cl)ccc3[nH]c2=O)ccc1C#N [Compound I-36, 4-{[(6-chloro-2-oxo-1,2-dihydroquinolin-3-yl)methyl]amino}-2-methylbenzonitrile]	< 6.00		6.00 to 7.00	
COc1cc(NCc2cc3cc(Cl)cc(C)c3[nH]c2=O)ccc1C#N [Compound I-95, 4-{[(6-chloro-8-methyl-2-oxo-1,2-dihydroquinolin-3-yl)methyl]amino}-2-methoxybenzonitrile]	< 6.00		6.00 to 7.00	
COc1cc(NCc2cc3cc(Cl)c(OCCN4CCCC4)cc3[nH]c2=O)ccc1C#N [Compound I-85, 4-[({6-chloro-2-oxo-7-[2-(pyrrolidin-1-yl)ethoxy]-1,2-dihydroquinolin-3-yl}methyl)amino]-2-methoxybenzonitrile]	< 6.00		6.00 to 7.00	
COc1cc(NCc2cc3cc(Cl)cc(OCCN4CCCC4)c3[nH]c2=O)ccc1C#N [Compound I-100, 4-[({6-chloro-2-oxo-8-[2-(pyrrolidin-1-yl)ethoxy]-1,2-dihydroquinolin-3-yl}methyl)amino]-2-methoxybenzonitrile]	< 6.00		6.00 to 7.00	
